Measurements reported in patent publication US8853258B2, “C-linked hydroxamic acid derivatives useful as antibacterial agents” (Pfizer Inc., priority 2009, dated 2014).
In brackets after ≈: the same amount, converted by molar mass. Read-outs that look alike come from different tables or passages of the source.

Experiments:
[1] = target: Pseudomonas aeruginosa LpxC enzyme (Pseudomonas aeruginosa (strain ATCC 15692 / DSM 22644 / CIP 104116 / JCM 14847 / LMG 12228 / 1C / PRS 101 / PAO1), UniProt P47205); experiment: IC50 Assay, LpxC Enzyme from P. aeruginosa (PA LpxC Enzyme IC50); format: biochemical
Description: In order to assess the compounds biological activity, selected in-vitro assays were conducted on selected compounds. One of the assays measured the compounds ability to disrupt the synthesis of lipopolysaccharide, LPS, which is a component of the outer membrane of Gram-negative bacteria. Disruption of this synthesis is lethal to the bacteria. The assay determined the compound's ability to inhibit LpxC, which is the first enzyme in the biosynthetic pathway for LPS (measured as IC50). Additionally, MICs (minimal inhibitory concentrations) were determined for several bacteria. The specific protocols are described below:
A) IC50 Assay, LpxC Enzyme from P. aeruginosa (Labled as PA LpxC Enzyme IC50
At the end of 1 hour, 5 ul of 1N HCl was added to stop the enzyme reaction; the plates were centrifuged, and then processed with the BioTrove Rapidfire HTMS Mass Spectrometry System. A no-enzyme control was used in calculating the IC50 values from the percent conversion values.

[2] = system: Acinetobacter baumanii/haemolyticus: Multidrug-resistant clinical isolate (AB-3167); experiment: MIC determination (CLSI), AB-3167; format: cell-based; conditions: for MIC: Acinetobacter baumannii
Procedure, shortened: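 Multidrug-resistant clinical isolate AB-3167 (A. baumannii/haemolyticus) tested for minimum inhibitory concentration following CLSI dilution susceptibility standards M7-A7 and M100-S18.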

[3] = system: Pseudomonas aeruginosa UI-18: Wild-type (PA-7); experiment: MIC determination (CLSI), PA-7; format: cell-based; conditions: for MIC: Pseudomonas aeruginosa
Procedure, shortened: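 MIC by dilution method per CLSI M7-A7 and M100-S18 guidelines. Strain: wild-type Pseudomonas aeruginosa UI-18.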

[4] = system: Klebsiella pneumoniae: Ciprofloxacin-resistant isolate, ESBL, clinical isolate (KP-3700); experiment: MIC determination (CLSI), KP-3700; format: cell-based
Procedure, shortened: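 MIC measured by broth dilution according to CLSI M7-A7 and M100-S18 standards. Test organism was a ciprofloxacin-resistant, ESBL-expressing clinical isolate.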

[5] = system: Escherichia coli EC-1: VOGEL, mouse virulent; experiment: MIC determination (CLSI), EC-1; format: cell-based; conditions: for MIC: Escherichia coli
Procedure, shortened: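 E. coli Vogel, a mouse-virulent strain (EC-1), was tested. MICs were set by dilution susceptibility testing per CLSI standards M7-A7/M100-S18.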

[6] = Table 3, read-out: PA LpxC enzyeme IC^50
[7] = P. aeruginosa LpxC enzyme, read-out: PA LpxC enzyeme IC50
[8] = Acinetobacter baumanii/haemolyticus AB-3167
[9] = Pseudomonas aeruginosa UI-18 (PA-7)
[10] = Acinetobacter baumanii/haemolyticus multidrug-resistant clinical isolate AB-3167
[11] = Pseudomonas aeruginosa UI-18 wild-type PA-7
[12] = Escherichia coli EC-1 VOGEL, mouse virulent

SMILES	KP-3700 MIC [4]	IC50 [1, 7]	AB-3167 MIC [2, 10]	PA-7 MIC [3, 11]	EC-1 MIC [5, 12]	also measured
CC(CCc1ccc(OCc2nc(-c3cccnc3)no2)cc1)(C(=O)NO)S(C)(=O)=O (stereo not shown) [Example 305, N-hydroxy-2-methyl-2-(methylsulfonyl)-4-{4-[(3-pyridin-3-yl-1,2,4-oxadiazol-5-yl)methoxy]phenyl}butanamide]	≧64 mg/L					IC50 [1, 6]: 7.53 nM; MIC ([2]; Table 3, read-out: AB-3167 MIC): ≥ 64 µg/mL; MIC ([3]; Table 3, read-out: PA-7 MIC): 32 µg/mL (≈ 71.7 µM); MIC ([5]; read-out: EC-1 MIC): 32 µg/mL (≈ 71.7 µM)
CC(CCc1ccc(-c2ccc(NS(C)(=O)=O)cc2)c(F)c1)(C(=O)NO)S(C)(=O)=O (stereo not shown) [Example 209]	32 µg/mL	2.04 nM				AB-3167 MIC [2, 8]: ≧64 mg/L; PA-7 MIC [3, 9]: 8 µg/mL; EC-1 MIC ([5]; Escherichia coli EC-1): 8 µg/mL
C[C@@](CCc1ccc(-c2ccc(OP(=O)(O)O)cc2)cc1)(C(=O)NO)S(C)(=O)=O [Example 6, 4′-[(3R)-4-(Hydroxyamino)-3-methyl-3-(methylsulfonyl)-4-oxobutyl]biphenyl-4-yl dihydrogen phosphate]						IC50 ([1]; Table 1, read-out: PA LpxC enzyeme IC50): 88.1 nM; MIC ([2]; read-out: AB-3167 (MIC)): ≥ 64 µg/mL; MIC ([3]; read-out: PA-7 (MIC)): ≥ 64 µg/mL; KP-3700 MIC ([4]; Table 1, MIC): ≧64 mg/L; MIC ([5]; read-out: EC-1: (MIC)): ≥ 64 µg/mL
CC(CCc1ccc(-c2ccc(N3CCOCC3)cc2)cc1)(C(=O)NO)S(C)(=O)=O (stereo not shown) [Example 165]	8 µg/mL	0.295 nM	≧64 mg/L	8 µg/mL	0.5 µg/mL	
COc1ccc(-c2ccc(CCC(C)(C(=O)NO)S(C)(=O)=O)cc2F)cn1 (stereo not shown) [Example 213]	8 µg/mL	0.518 nM				AB-3167 MIC [2, 8]: ≧64 mg/L; PA-7 MIC [3, 9]: 2 µg/mL; EC-1 MIC ([5]; Escherichia coli EC-1): 2 µg/mL
CC(CCc1ccc(OCc2ccccc2C#N)cc1)(C(=O)NO)S(C)(=O)=O (stereo not shown) [Example 285, 4-{4-[(2-cyanobenzyl)oxy]phenyl}-N-hydroxy-2-methyl-2-(methylsulfonyl)butanamide]	≧64 mg/L					IC50 [1, 6]: 10 nM; MIC ([2]; Table 3, read-out: AB-3167 MIC): ≥ 64 µg/mL; MIC ([3]; Table 3, read-out: PA-7 MIC): 32 µg/mL (≈ 79.5 µM); MIC ([5]; read-out: EC-1 MIC): 32 µg/mL (≈ 79.5 µM)
CC(CCc1ccc(-c2ccc(OCCO)cc2)cc1)(C(=O)NO)S(C)(=O)=O (stereo not shown) [Example 113]	8 µg/mL	0.148 nM	≧64 mg/L	1 µg/mL	2 µg/mL	
CC(CCc1ccc(OCc2ccc(C(F)(F)F)cc2)cc1)(C(=O)NO)S(C)(=O)=O (stereo not shown) [Example 301, N-hydroxy-2-methyl-2-(methylsulfonyl)-4-(4-{[4-(trifluoromethyl)benzyl]oxy}phenyl)butanamide]	8 µg/mL					IC50 [1, 6]: 2.08 nM; MIC ([2]; Table 3, read-out: AB-3167 MIC): 4 µg/mL (≈ 8.98 µM); MIC ([3]; Table 3, read-out: PA-7 MIC): 8 µg/mL (≈ 18 µM); MIC ([5]; read-out: EC-1 MIC): 4 µg/mL (≈ 8.98 µM)
CC(CCc1ccc(-c2cnc3ccccc3c2)cc1F)(C(=O)NO)S(C)(=O)=O (stereo not shown) [Example 200]	8 µg/mL	0.463 nM	≧64 mg/L	4 µg/mL	1 µg/mL	
CC(CCc1ccc(-c2ccc(C#N)c(Cl)c2)cc1)(C(=O)NO)S(C)(=O)=O (stereo not shown) [Example 126]	2 µg/mL	0.329 nM	8 µg/mL	0.5 µg/mL	0.5 µg/mL	
Cc1cc(-c2ccc(CCC(C)(C(=O)NO)S(C)(=O)=O)cc2)ccc1C#N (stereo not shown) [Example 109]	2 µg/mL	0.144 nM	32 µg/mL	2 µg/mL	0.5 µg/mL	
CC(CCc1ccc(OCCCOc2ccccc2)cc1)(C(=O)NO)S(C)(=O)=O (stereo not shown) [Example 297, N-hydroxy-2-methyl-2-(methylsulfonyl)-4-[4-(3-phenoxypropoxy)phenyl]butanamide]	≧64 mg/L					IC50 [1, 6]: 42.5 nM; MIC ([2]; Table 3, read-out: AB-3167 MIC): 32 µg/mL (≈ 75.9 µM); MIC ([3]; Table 3, read-out: PA-7 MIC): ≥ 64 µg/mL; MIC ([5]; read-out: EC-1 MIC): 16 µg/mL (≈ 38 µM)
CC(CCc1ccc(-c2ccc(N)nc2)c(F)c1)(C(=O)NO)S(C)(=O)=O (stereo not shown) [Example 206]	≧64 mg/L	23.5 nM				AB-3167 MIC [2, 8]: ≧64 mg/L; PA-7 MIC [3, 9]: 16 µg/mL; EC-1 MIC ([5]; Escherichia coli EC-1): ≧64 mg/L
CC(CCc1ccc(-c2ccc3nonc3c2)cc1)(C(=O)NO)S(C)(=O)=O (stereo not shown) [Example 174]	8 µg/mL	0.54 nM	≧64 mg/L	2 µg/mL	4 µg/mL	
